The compounds below were run against menin protein (Homo sapiens (Human), UniProt O00255) (assay: biochemical). Conditions: FP competitive binding; menin protein 4 nM, FAM-MM2 probe 2 nM.
Type: binding
Protocol: A fluorescence polarization (FP) competitive binding assay was used to determine the binding affinities of representative menin inhibitors. A FAM labeled fluorescent probe was designed and synthesized based on a MLL1 peptide (FAM-MM2). Equilibrium dissociation constant (Kd) value of FAM-MM2 to menin protein was determined from protein saturation experiments by monitoring the total fluorescence polarization of mixtures composed with the fluorescent probe at a fixed concentration and the protein with increasing concentrations up to full saturation. Serial dilutions of the protein were mixed with FAM-MM2 to a final volume of 200 μl in the assay buffer (PBS with 0.02% Bovine γ-Globulin and 4% DMSO. 0.01% Triton X-100 was added right before assays). Final FAM-MM2 concentration was 2 nM. Plates were incubated at room temperature for 30 minutes with gentle shaking to assure equilibrium.
The IC50, see Table 3, and Ki values of representative Compounds of the Disclosure were determined in a competitive binding experiment. Mixtures of 5 μl of the tested compounds in DMSO and 195 μl of preincubated protein/probe complex solution in the assay buffer were added into assay plates which were incubated at room temperature for 30 minutes with gentle shaking. Final concentration of the menin protein was 4 nM, and final probe concentration is 2 nM. […] FP values were measured as described above. IC50 values were determined by nonlinear regression fitting of the competition curves.

Chain of menin protein (O00255 whole entry): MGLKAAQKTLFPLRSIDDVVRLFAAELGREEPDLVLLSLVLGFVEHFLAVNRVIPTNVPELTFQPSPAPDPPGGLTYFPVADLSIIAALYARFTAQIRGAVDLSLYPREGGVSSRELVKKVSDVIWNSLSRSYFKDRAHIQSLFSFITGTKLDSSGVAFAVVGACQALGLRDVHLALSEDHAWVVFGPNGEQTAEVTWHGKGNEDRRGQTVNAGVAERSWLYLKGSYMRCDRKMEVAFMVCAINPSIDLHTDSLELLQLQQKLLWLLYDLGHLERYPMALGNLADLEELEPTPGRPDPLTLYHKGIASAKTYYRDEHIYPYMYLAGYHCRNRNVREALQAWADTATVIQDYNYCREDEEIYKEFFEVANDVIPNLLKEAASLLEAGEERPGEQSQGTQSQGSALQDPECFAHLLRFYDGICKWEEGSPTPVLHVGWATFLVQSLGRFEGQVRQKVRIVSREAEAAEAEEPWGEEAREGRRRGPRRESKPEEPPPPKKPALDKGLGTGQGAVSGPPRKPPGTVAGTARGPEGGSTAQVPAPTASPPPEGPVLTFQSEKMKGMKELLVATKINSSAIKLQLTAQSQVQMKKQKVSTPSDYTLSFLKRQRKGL

Menin Binding Affinity IC50 (μM) | Structure (SMILES)
No inhibition | CCN1Cc2ccccc2C(C2CCCC2)(C2CCN(S(=O)(=O)C3CN(c4ccc(S(=O)(=O)c5ccncc5)cc4)C3)CC2)C1 (centres unmarked) [compound 160, 4-cyclopentyl-2-ethyl-4-(1-((1-(4-(pyridin-4-ylsulfonyl)phenyl)azetidin-3-yl)sulfonyl)piperidin-4-yl)-1,2,3,4-tetrahydroisoquinoline]

Same assay, conditions: FP competitive binding; menin protein 4 nM, FAM-MM2 probe 2 nM; read-out: Menin Binding Affinity IC50

Structure (SMILES) | IC50 [µM]
N#Cc1ccc(OCCCN2CCC(C3(C4CCCS4(=O)=O)NCCc4ccccc43)CC2)cc1 (centres unmarked) [compound 304, 4-(3-(4-(1-(1,1-dioxidotetrahydrothiophen-2-yl)-1,2,3,4-tetrahydroisoquinolin-1-yl)piperidin-1-yl)propoxy)benzonitrile] | 10.7
CC(=O)O[C@@H]1CCC[C@H]1C1(C2CCN(CCCOc3ccc(C#N)cc3)CC2)CN(C)Cc2ccc(F)cc21 (mixture of isomers) [compound 315, rac-(1R,2S)-2-(4-(1-(3-(4-cyanophenoxy)propyl)piperidin-4-yl)-6-fluoro-2-methyl-1,2,3,4-tetrahydroisoquinolin-4-yl)cyclopentyl acetate] | 0.131
N#Cc1ccc(OCCCN2CCC(C(C#N)(c3ccccc3)C3CCCCC3)CC2)cc1 (centres unmarked) [compound 294, 4-(3-(4-(cyano(cyclohexyl)(phenyl)methyl)piperidin-1-yl)propoxy)benzonitrile] | 11.1
CC(C)(C)S(=O)(=O)c1ccc(N2CC(CN3CCC(C4(C5CCCC5)NCCc5ccccc54)CC3)C2)cc1 (centres unmarked) [compound 87, 1-(1-((1-(4-(tert-butylsulfonyl)phenyl)azetidin-3-yl)methyl)piperidin-4-yl)-1-cyclopentyl-1,2,3,4-tetrahydroisoquinoline] | 0.122
CN1CCc2ccccc2C1(C1CCCC1)C1CN(CCCCCOc2ccc(C#N)cc2)C1 (centres unmarked) [compound 63, 4-((5-(3-(1-cyclopentyl-2-methyl-1,2,3,4-tetrahydroisoquinolin-1-yl)azetidin-1-yl)pentyl)oxy)benzonitrile] | 6
CC1CN(CCCOc2ccc(C#N)cc2)CCC1C(C#N)(c1ccccc1)C1CCCC1 (centres unmarked) [compound 120, 4-(3-(4-(cyano(cyclopentyl)(phenyl)methyl)-3-methylpiperidin-1-yl)propoxy)benzonitrile] | 5.7
N#Cc1ccc(OC2CC(N3CCC(C4(C5CCCC5)NCCc5ccccc54)CC3)C2)cc1 (single isomer, unassigned) [compound 130, 4-((1s,3s)-3-(4-(1-cyclopentyl-1,2,3,4-tetrahydroisoquinolin-1-yl)piperidin-1-yl)cyclobutoxy)benzonitrile] | 10.6
CC(C)CC1(C2CCN(CCCOc3ccc(C#N)cc3)CC2)NCCc2ccccc21 (centres unmarked) [compound 242, 4-(3-(4-(1-isobutyl-1,2,3,4-tetrahydroisoquinolin-1-yl)piperidin-1-yl)propoxy)benzontrile] | 2.1
CC(C)C(=O)N1CCCCC1C1(C2CCN(CCCOc3ccc(C#N)cc3)CC2)CN(C)Cc2ccccc21 (centres unmarked) [compound 300, 4-(3-(4-(4-(1-isobutyrylpiperidin-2-yl)-2-methyl-1,2,3,4-tetrahydroisoquinolin-4-yl)piperidin-1-yl)propoxy)benzonitrile] | 56.5
CO[C@@H]1CCC[C@H]1C(C#N)(c1ccccc1)C1CCN(CCCOc2ccc(C#N)cc2)CC1 (mixture of isomers) [compound 175, rac-4-(3-(4-(cyano((1S,2R)-2-methoxycyclopentyl)(phenyl)methyl)piperidin-1-yl)propoxy)benzonitrile] | 8.8
CO[C@@H]1CCC[C@@H]1C(C#N)(c1ccccc1)C1CCN(CCCOc2ccc(C#N)cc2)CC1 (mixture of isomers) [compound 177, rac-4-(3-(4-(cyano((1R,2R)-2-methoxycyclopentyl)(phenyl)methyl)piperidin-1-yl)propoxy)benzonitrile] | 3.6
N#Cc1ccc(OCCCN2CCC(C(CO)(c3ccccc3)C3CCCC3)CC2)cc1 (centres unmarked) [compound 37, 4-(3-(4-(1-cyclopentyl-2-hydroxy-1-phenylethyl)piperidin-1-yl)propoxy)benzonitrile] | 0.449
CO[C@H]1CCC[C@@H]1C(C#N)(c1ccccc1)C1CCN(CCCOc2ccc(C#N)cc2)CC1 (stereo partly drawn) [compound 174, 4-(3-(4-(cyano((1R,2S)-2-methoxycyclopentyl)(phenyl)methyl)piperidin-1-yl)propoxy)benzonitrile] | 24.6
CC(=O)O[C@@H]1CCC[C@H]1C1(C2CCN(CC3CN(c4ccc(S(=O)(=O)C5CC5)cc4)C3)CC2)CN(C)Cc2ccccc21 (mixture of isomers) [compound 204, rac-(1R,2S)-2-(4-(1-((1-(4-(cyclopropylsulfonyl)phenyl)azetidin-3-yl)methyl)piperidin-4-yl)-2-methyl-1,2,3,4-tetrahydroisoquinolin-4-yl)cyclopentyl acetate] | 0.122
COC(=O)N1Cc2ccccc2C(C2CCN(CCCOc3ccc(C#N)cc3)CC2)([C@@H]2CCC[C@H]2OC)C1 (mixture of isomers) [compound 323, methyl rac-4-(1-(3-(4-cyanophenoxy)propyl)piperidin-4-yl)-4-((1S,2R)-2-methoxycyclopentyl)-3,4-dihydroisoquinoline-2(1H)-carboxylate] | 10.4
CC(=O)O[C@@H]1CCC[C@H]1C(C#N)(c1cccc(F)c1)C1CCN(CC2CN(c3ccc(C#N)cc3)C2)CC1 (mixture of isomers) [compound 416, rac-(1R,2S)-2-(cyano(1-((1-(4-cyanophenyl)azetidin-3-yl)methyl)piperidin-4-yl)(3-fluorophenyl)methyl) cyclopentyl acetate] | 3.28

Continued, values first:

IC50 [µM] | Structure (SMILES)
25.8 | COCC[C@@H]1CCC[C@H]1C(C#N)(c1ccccc1)C1CCN(CC2CN(c3ccc(S(=O)(=O)c4ccnc(C)c4)cc3)C2)CC1 (mixture of isomers) [compound 337, rac-2-((1R,2S)-2-(2-methoxyethyl)cyclopentyl)-2-(1-((1-(4-((2-methylpyridin-4-yl)sulfonyl)phenyl)azetidin-3-yl)methyl)piperidin-4-yl)-2-phenylacetonitrile]
1.4 | CN1COCN([C@@H]2CCC[C@H]2C(C#N)(c2ccccc2)C2CCN(CC3CN(c4ccc(S(=O)(=O)c5ccncc5)cc4)C3)CC2)C1=O (mixture of isomers) [compound 280, rac-2-((1S,2R)-2-(5-methyl-4-oxo-1,3,5-oxadiazinan-3-yl)cyclopentyl)-2-phenyl-2-(1-((1-(4-(pyridin-4-ylsulfonyl)phenyl)azetidin-3-yl)methyl)piperidin-4-yl)acetonitrile]
0.221 | CNC(=O)O[C@@H]1CCC[C@H]1C(Cn1cccc1)(c1ccccc1)C1CCN(CC2CN(c3ccc(S(=O)(=O)c4ccccc4)cc3)C2)CC1 (mixture of isomers) [compound 358, rac-(1R,2S)-2-(1-phenyl-1-(1-((1-(4-(phenylsulfonyl)phenyl)azetidin-3-yl)methyl)piperidin-4-yl)-2-(1H-pyrrol-1-yl)ethyl)cyclopentyl methylcarbamate]
0.045 | CC(=O)O[C@H]1CCC[C@@H]1C(C#N)(c1ccccc1F)C1CCN(CC2CN(c3ccc(S(=O)(=O)C4CC4)cc3)C2)CC1 (mixture of isomers) [compound 310, rac-(1S,2R)-2-(cyano(1-((1-(4-(cyclopropylsulfonyl)phenyl)azetidin-3-yl)methyl)piperidin-4-yl)(2-fluorophenyl)methyl) cyclopentyl acetate]
4.7 | CS(=O)(=O)C[C@H]1CCC[C@@H]1C(C#N)(c1ccccc1)C1CCN(CC2CN(c3ccc(S(=O)(=O)c4ccncc4)cc3)C2)CC1 (mixture of isomers) [compound 255, rac-2-((1S,2S)-2-((methylsulfonyl)methyl)cyclopentyl)-2-phenyl-2-(1-((1-(4-(pyridin-4-ylsulfonyl)phenyl)azetidin-3-yl)methyl)piperidin-4-yl)acetonitrile]
0.897 | N#CC(c1ccccc1)(C1CCN(CC2CN(c3ccc(S(=O)(=O)c4ccncc4)cc3)C2)CC1)[C@H]1CCC[C@@H]1CCO (mixture of isomers) [compound 342, rac-2-((1S,2R)-2-(2-hydroxyethyl)cyclopentyl)-2-phenyl-2-(1-((1-(4-(pyridin-4-ylsulfonyl)phenyl)azetidin-3-yl)methyl)piperidin-4-yl)acetonitrile]
1 | CCC(=O)O[C@@H]1CCC[C@H]1C(C#N)(c1ccccc1)C1CCN(CC2CN(c3ccc(S(=O)(=O)c4ccncc4)cc3)C2)CC1 (mixture of isomers) [compound 196, rac-(1R,2S)-2-(cyano(phenyl)(1-((1-(4-(pyridin-4-ylsulfonyl)phenyl)azetidin-3-yl)methyl)piperidin-4-yl)methylcyclopentyl propionate]
0.396 | CNC(=O)O[C@@H]1CCC[C@H]1C(C#N)(c1ccccc1)C1CCN(CC2CN(c3ccc(S(=O)(=O)c4ccncc4)cc3)C2)CC1 (mixture of isomers) [compound 216, rac-(1R,2S)-2-(cyano(phenyl)(1-((1-(4-(pyridin-4-ylsulfonyl)phenyl)azetidin-3-yl)methyl)piperidin-4-yl)methyl)cyclopentyl methylcarbamate]
1 | CC(=O)O[C@@H]1CCC[C@H]1C(C#N)(c1ccccc1)C1CCN(CC2CN(c3ccc(S(=O)(=O)c4ccncc4)cc3)C2)CC1 (mixture of isomers) [compound 186, rac-(1R,2S)-2-(cyano(phenyl)(1-((1-(4-(pyridin-4-ylsulfonyl)phenyl)azetidin-3-yl)methyl)piperidin-4-yl)methyl)cyclopentyl acetate]

Source: patent US10899738B2 (THE REGENTS OF THE UNIVERSITY OF MICHIGAN, priority 2016, dated 2021)
